Active and inactive are the calls of the source.
Columns and labels:
Assay type in all cases: functional, organism-based
[1] = tested on: Mus musculus; assay: Hypocholesterolemic activity in OVX-induced C57BL/6 mouse model assessed as increase in Abcg8 mRNA expression in liver in liver at 150 mg/kg, ig for 4 weeks by qRT-PCR analysis
[2] = tested on: Mus musculus; assay: Hypocholesterolemic activity in OVX-induced C57BL/6 mouse model assessed as increase in Slcob2 mRNA expression in liver in liver at 150 mg/kg, ig for 4 weeks by qRT-PCR analysis
[3] = tested on: Mus musculus; assay: Hypocholesterolemic activity in OVX-induced C57BL/6 mouse model assessed as increase in Abcg5 protein expression in liver in liver at 150 mg/kg, ig for 4 weeks by western blot analysis
[4] = tested on: Mus musculus; assay: Hypocholesterolemic activity in OVX-induced C57BL/6 mouse model assessed as increase in Scd1 mRNA expression in liver at 150 mg/kg, ig for 4 weeks by qRT-PCR analysis
[5] = tested on: Mus musculus; assay: Hypocholesterolemic activity in OVX-induced C57BL/6 mouse model assessed as increase in Abcb1a mRNA expression in liver in liver at 150 mg/kg, ig for 4 weeks by qRT-PCR analysis
[6] = tested on: Mus musculus; assay: Hypocholesterolemic activity in OVX-induced C57BL/6 mouse model assessed as increase in Fasn protein expression in liver at 150 mg/kg, ig for 4 weeks by western blot analysis
[7] = tested on: Mus musculus; assay: Hypocholesterolemic activity in OVX-induced C57BL/6 mouse model assessed as increase in ACACa protein expression in liver at 150 mg/kg, ig for 4 weeks by western blot analysis
[8] = tested on: Mus musculus; assay: Hypocholesterolemic activity in OVX-induced C57BL/6 mouse model assessed as increase in Abcb4 mRNA expression in liver in liver at 150 mg/kg, ig for 4 weeks by qRT-PCR analysis
[9] = tested on: Mus musculus; assay: Hypocholesterolemic activity in OVX-induced C57BL/6 mouse model assessed as increase in Elovl5 mRNA expression in liver at 150 mg/kg, ig for 4 weeks by qRT-PCR analysis
[10] = tested on: Mus musculus; assay: Hypocholesterolemic activity in OVX-induced C57BL/6 mouse model assessed as increase in HDL-C concentration in serum at 150 mg/kg, ig for 4 weeks
[11] = tested on: Mus musculus; assay: Hypocholesterolemic activity in OVX-induced C57BL/6 mouse model assessed as increase in Cyp7b1 mRNA expression in liver in liver at 150 mg/kg, ig for 4 weeks by qRT-PCR analysis
[12] = tested on: Mus musculus; assay: Hypocholesterolemic activity in OVX-induced C57BL/6 mouse model assessed as decrease in TC concentration in serum at 150 mg/kg, ig for 4 weeks
[13] = tested on: Mus musculus; assay: Hypocholesterolemic activity in OVX-induced C57BL/6 mouse model assessed as increase in Elovl6 mRNA expression in liver at 150 mg/kg, ig for 4 weeks by qRT-PCR analysis
[14] = tested on: Mus musculus; assay: Hypocholesterolemic activity in OVX-induced C57BL/6 mouse model assessed as decrease in Fabp6 mRNA expression in Ileum […] at 150 mg/kg, ig for 4 weeks by qRT-PCR analysis
[15] = tested on: Mus musculus; assay: Hypocholesterolemic activity in OVX-induced C57BL/6 mouse model assessed as increase in Abcg8 protein expression in liver in liver at 150 mg/kg, ig for 4 weeks by western blot analysis
[16] = tested on: Mus musculus; assay: Hypocholesterolemic activity in OVX-induced C57BL/6 mouse model assessed as decrease in Slc10a2 mRNA expression in Ileum at 150 mg/kg, ig for 4 weeks by qRT-PCR analysis
[17] = tested on: Mus musculus; assay: Hypocholesterolemic activity in OVX-induced C57BL/6 mouse model assessed as increase in CD36 protein expression in liver at 150 mg/kg, ig for 4 weeks by western blot analysis
[18] = tested on: Mus musculus; assay: Hypocholesterolemic activity in OVX-induced C57BL/6 mouse model assessed as increase in SCD1 protein expression in liver at 150 mg/kg, ig for 4 weeks by western blot analysis
[19] = tested on: Mus musculus; assay: Hypocholesterolemic activity in OVX-induced C57BL/6 mouse model assessed as decrease in LDL-C concentration in serum at 150 mg/kg, ig for 4 weeks
[20] = tested on: Mus musculus; assay: Hypocholesterolemic activity in OVX-induced C57BL/6 mouse model assessed as increase in CD36 mRNA expression in liver at 150 mg/kg, ig for 4 weeks by qRT-PCR analysis
[21] = tested on: Mus musculus; assay: Hypocholesterolemic activity in OVX-induced C57BL/6 mouse model assessed as decrease in size of lipid droplet concentration in […] at 150 mg/kg, ig for 4 weeks by H and E staining based assay; details: Liver
[22] = tested on: Mus musculus; assay: Hypocholesterolemic activity in OVX-induced C57BL/6 mouse model assessed as increase in Abcg5 mRNA expression in liver in liver at 150 mg/kg, ig for 4 weeks by qRT-PCR analysis
[23] = tested on: Mus musculus; assay: Hypocholesterolemic activity in OVX-induced C57BL/6 mouse model assessed as increase in Slc10a1 mRNA expression in liver in liver at 150 mg/kg, ig for 4 weeks by qRT-PCR analysis
[24] = tested on: Mus musculus; assay: Hypocholesterolemic activity in OVX-induced C57BL/6 mouse model assessed as decrease in number of lipid droplet concentration in liver at 150 mg/kg, ig for 4 weeks by H and E staining based assay
[25] = tested on: Mus musculus; assay: Hypocholesterolemic activity in OVX-induced C57BL/6 mouse model assessed as increase in Fasn mRNA expression in liver at 150 mg/kg, ig for 4 weeks by qRT-PCR analysis

Measured: Activity

C[C@H]1[C@@H](O)O[C@@H]2O[C@@]3(C)CC[C@H]4[C@H](C)CC[C@@H]1[C@@]24OO3
active: [1] | [2] | [3] | [4] | [5] | [6] | [7] | [8] | [9] | [10] | [11] | [12] | [13] | [14] | [15] | [16] | [17] | [18] | [19] | [20] | [21] | [22] | [23] | [24] | [25]
